# Results from ChEMBL document CHEMBL6120994, “Unravelling the potential of natural chelating agents in the control of Staphylococcus aureus and Pseudomonas aeruginosa biofilms” (Eur J Med Chem, 2025).
# Active and inactive are the calls of the source. The calls are words filed in the database; no cut-off is given here.
# Columns and labels:
# [1] = system: Cell membrane; test: Disruption of membrane integrity in pre-established 24 hr-old Staphylococcus aureus CECT 976 assessed as PI uptake at 10000 ug/ml measured after 24 hrs in presence of 1/4XMIC to MIC tobramycin by PI staining based flow cytometry; assay type: subcellular; conditions: dose 10000.0 µg/ml
# [2] = Metal chelating activity at iron(III) in chrome azurol sulphonate solution incubated for 30 mins by spectrophotometric analysis; conditions: dose 6.25-1000 µg/ml
# [3] = system: Staphylococcus aureus; test: Inhibition of virulence production in pre-established 24 hr-old Staphylococcus aureus CECT 976 biofilms assessed as diameter of lipases halo at 10XMTC measured after 48 hrs in presence of 1/4XMIC tobramycin (reference value: 11.5 +/-0.6 mm); assay type: functional
# [4] = system: Staphylococcus aureus; test: Inhibition of virulence production in Staphylococcus aureus CECT 976 biofilms assessed as diameter of protease halo at 1XMTC measured after 72 hrs (reference value: 12 to 13 mm); assay type: functional
# [5] = system: Staphylococcus aureus; test: Antibiotic adjuvant activity against Staphylococcus aureus CECT 976 assessed as potentiation of tobramycin-induced antibacterial activity by measuring fractional inhibitory concentration index (MIC) at 62.5 ug/ml measured after 24 hrs by checkerboard assay; assay type: functional; conditions: dose 62.5 µg/ml
# [6] = system: Pseudomonas aeruginosa; test: Antibiotic adjuvant activity against preestablished 24-hr old Pseudomonas aeruginosa ATCC 10145 assessed as potentiation of ciprofloxacin-induced antibiofilm activity by measuring reduction in metabolic activity of biofilm cells at 1000 ug/ml in presence of 1/8XMIC ciprofloxacin by resazurin staining based fluorescence analysis; assay type: functional, organism-based; conditions: dose 1000.0 µg/ml
# [7] = system: HepG2; test: Cytotoxicity against human HepG2 cells assessed as cell mass by measuring SRB binding at 93.5 to 1000 ug/ml measured after 24 hrs by SRB assay; assay type: toxicity, cell-based; conditions: hepg2, 24 h, at 93.5 to 1000 µg/mL, dose 93.5-1000 µg/ml
# [8] = system: HepG2; test: Induction of ROS production in human HepG2 cells assessed as DCF fluorescence at 90 to 1000 ug/ml measured after 24 hrs by DCFH-DA staining based fluorescence analysis; assay type: toxicity, cell-based; conditions: hepg2, 24 h, at 90 to 1000 µg/mL, dose 90-1000 µg/ml
# [9] = system: Staphylococcus aureus; test: Inhibition of virulence production in Staphylococcus aureus CECT 976 biofilms assessed as diameter of gelatinases halo at 1/2XMTC measured after 48 hrs in presence of 1/4XMIC tobramycin (reference value: 11.3 to 11.8 mm); assay type: functional
# [10] = system: Staphylococcus aureus; test: Inhibition of virulence production in Staphylococcus aureus CECT 976 biofilms assessed as diameter of gelatinases halo at 1/2XMTC measured after 48 hrs in presence of 1/8XMIC tobramycin (reference value: 11.3 to 12 mm); assay type: functional
# [11] = system: Staphylococcus aureus; test: Inhibition of virulence production in pre-established 24 hr-old Staphylococcus aureus CECT 976 biofilms assessed as diameter of protease halo at 10XMTC measured after 72 hrs in presence of 1/4XMIC tobramycin (reference value: 12.5 to 12.8 mm); assay type: functional
# [12] = Cytotoxicity against human HepG2 cells assessed as metabolic activity by measuring resazurin reduction at 93.5 to 1000 ug/ml measured after 24 hrs by resazurin reduction method; assay type: toxicity, cell-based; conditions: at 93.5 to 1000 µg/mL, dose 93.5-1000 µg/ml, read-out: Activity
# [13] = system: Staphylococcus aureus; test: Antibiotic adjuvant activity against Staphylococcus aureus CECT 976 assessed as potentiation of tobramycin-induced antibacterial activity by measuring tobramycin MIC at 62.5 ug/ml measured after 24 hrs by checkerboard assay (reference value: 4 ug/ml); assay type: functional; conditions: dose 62.5 µg/ml
# [14] = system: Staphylococcus aureus; test: Inhibition of virulence production in pre-established 24 hr-old Staphylococcus aureus CECT 976 biofilms assessed as diameter of protease halo at 1XMTC measured after 72 hrs (reference value: 12.3 to 13.3 mm); assay type: functional
# [15] = system: Staphylococcus aureus; test: Antibacterial activity against Staphylococcus aureus CECT 976 assessed as inhibition of bacterial growth by measuring inhibition zone diameter at 1000 ug/ml incubated for 24 hrs in presence of tetracycline by disc diffusion method (reference value: 24 +/- 1.41 mm); assay type: functional; conditions: read-out: DIZ
# [16] = system: Staphylococcus aureus; test: Antibiotic adjuvant activity against preestablished 24 hr-old Staphylococcus aureus CECT 976 assessed as potentiation of tobramycin-induced antibiofilm activity by measuring reduction of metabolic activity of biofilm cells at 10000 ug/ml in presence of 1/4XMIC tobramycin by resazurin staining based fluorescence analysis (reference value: 37%); assay type: functional
# [17] = system: Staphylococcus aureus; test: Inhibition of virulence production in pre-established 24 hr-old Staphylococcus aureus CECT 976 biofilms assessed as diameter of gelatinases halo at 10XMTC measured after 48 hrs in presence of 1XMIC tobramycin (reference value: 9.5 to 10 mm); assay type: functional
# [18] = system: Cell membrane; test: Disruption of membrane integrity in pre-established 24 hr-old Staphylococcus aureus CECT 976 biofilm at 10XMTC measured after 24 hrs by PI staining based flow cytomtery; assay type: subcellular
# [19] = system: Staphylococcus aureus; test: Antibiotic adjuvant activity against Staphylococcus aureus CECT 976 assessed as potentiation of tobramycin-induced antibiofilm activity by measuring reduction in metabolic activity of biofilm cells at 500 ug/ml in presence of tobramycin by resazurin staining based fluorescence analysis; assay type: functional, organism-based; conditions: dose 500.0 µg/ml
# [20] = system: Staphylococcus aureus; test: Antibiofilm activity against preestablished 24 hr-old Staphylococcus aureus CECT 976 assessed as reduction in metabolic activity of biofilm cells at MTC by resazurin staining based fluorescence analysis; assay type: functional, organism-based
# [21] = system: Staphylococcus aureus; test: Inhibition of virulence production in pre-established 24 hr-old Staphylococcus aureus CECT 976 biofilms assessed as diameter of protease halo at 10XMTC measured after 72 hrs in presence of 1XMIC tobramycin (reference value: 11.5 to 12 mm); assay type: functional
# [22] = system: Staphylococcus aureus; test: Bactericidal activity against Staphylococcus aureus CECT 976 assessed as bacterial killing incubated in MHB for 24 hrs and measured following culturing on agar plate for 24 hrs; assay type: functional; conditions: time 48 hrs
# [23] = system: Staphylococcus aureus; test: Antibacterial activity against Staphylococcus aureus CECT 976 assessed as inhibition of bacterial growth by measuring inhibition zone diameter at 1000 ug/ml incubated for 24 hrs in presence of fusidic acid by disc diffusion method (reference value: 27.75 +/- 0.5 mm); assay type: functional; conditions: read-out: DIZ
# [24] = system: Staphylococcus aureus; test: Inhibition of virulence production in pre-established 24 hr-old Staphylococcus aureus CECT 976 biofilms assessed as diameter of gelatinases halo at 10XMTC measured after 48 hrs in presence of 1/4XMIC tobramycin (reference value: 10 to 11.3 mm); assay type: functional
# [25] = system: Pseudomonas aeruginosa; test: Antibiotic adjuvant activity against Pseudomonas aeruginosa ATCC 10145 assessed as potentiation of ciprofloxacin-induced antibiofilm activity by measuring reduction in biofilm cells culturability at 500 ug/ml measured after 24 hrs in presence of ciprofloxacin by visual counting method; assay type: functional, organism-based; conditions: dose 500.0 µg/ml
# [26] = system: Staphylococcus aureus; test: Inhibition of virulence production in Staphylococcus aureus CECT 976 biofilms assessed as diameter of gelatinases halo at 1/2XMTC measured after 48 hrs in presence of 1/2XMIC tobramycin (reference value: 10 to 10.8 mm); assay type: functional
# [27] = system: Pseudomonas aeruginosa; test: Antibacterial activity against Pseudomonas aeruginosa ATCC 10145 assessed as inhibition of bacterial growth by measuring inhibition zone diameter at 100 ug/ml incubated for 24 hrs in presence of ciprofloxacin by disc diffusion method (reference value: 24.25 +/-0.5 mm); assay type: functional; conditions: read-out: DIZ
SMILES,Activity [1],Activity [2],Activity [3],Activity [4],fractional inhibitory concentration index (FICI) [5],Activity [6],Activity [7],Activity [8],Activity [9],Activity [10],Activity [11],viability at 24 h [12],MIC [13],Activity [14],zone of inhibition at 1000 µg/mL [15],inhibition at 10000 µg/mL [16],Activity [17],Activity [18],Activity [19],Activity [20],other results
O=c1cc(CO)occ1O [KOJIC ACID],50%,Dose-dependent-effect,2.5 mm,0 mm,0.3,inactive,> 90%,~ 80%,0 mm,0 mm,0 mm,> 80%,1 µg/mL,3.5 mm,27.2 mm,80%,0 mm,90%,inactive,inactive,Activity [21]: 0 mm; MBC [22]: > 1000 µg/mL; zone of inhibition at 1000 µg/mL [23]: 26.8 mm; Activity [24]: 0 mm; Activity [25]: inactive; Activity [26]: 0 mm; zone of inhibition at 100 µg/mL [27]: 30.2 mm
Cc1occc(=O)c1O [MALTOL],50%,Dose-dependent-effect,2.3 mm,0 mm,0.3,inactive,> 90%,~ 116%,0 mm,0 mm,0 mm,> 80%,1 µg/mL,3.5 mm,25.8 mm,80%,0 mm,90%,inactive,inactive,Activity [21]: 0 mm; MBC [22]: > 1000 µg/mL; zone of inhibition at 1000 µg/mL [23]: 28.2 mm; Activity [24]: 0 mm; Activity [25]: inactive; Activity [26]: 0 mm; zone of inhibition at 100 µg/mL [27]: 27.2 mm
